Data on 12 compounds can be found in patent publication US7932246B2, “Histone deacetylase inhibitors” (Chroma Therapeutics Ltd., priority 2005, dated 2011).

The subject of one experiment is HeLa cells. Description: HeLa cell inhibition assay (SRB cell viability). Conditions: Homo sapiens, HeLa, 72 h, IC50 range. Format: cell-based. Put shortly: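 Log-phase cells seeded at 1000 cells/well, grown 24 h, then exposed to compound (final 20 μM top concentration) for 72 h. Viability by sulphorhodamine B staining, % inhibition relative to DMSO control. IC50 from 8-point sigmoidal variable-slope fit.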

Experiment [1] has as its target histone deacetylase activity (HeLa nuclear extract). The experiment in a line: HDAC fluorescent activity assay (Biomol, Fluor de Lys substrate). Format: biochemical. To be noted: IC50 range. The gist of the method:
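HeLa nuclear extract served as the deacetylase source for the acetyl-lysine Fluor de Lys substrate, with or without inhibitor. Developer converts deacetylated substrate to a fluorophore.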

For a further experiment, the system named is U937. Description: U937 cell inhibition assay (WST-1 cell viability). Format: cell-based. Conditions: Homo sapiens, U-937; U937 cells, 72-96 h, WST-1 assay, IC50 range. The gist of the method:
(§1)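 Cells seeded at 1000-2000/well, grown 24 h, then treated for 72-96 h with 8 concentrations (top 10 μM, 3-fold, 6 replicates). Viability by WST-1; inhibition relative to DMSO, IC50 by sigmoidal variable-slope fit.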

A further experiment relates to HUT. Description: HUT cell inhibition assay (WST-1 cell viability). It counts as cell-based. Conditions: HUT cells, 72-96 h, WST-1 assay, IC50 range. Put shortly: as §1

For the compound `O=C(NO)c1cnc(N2CC3CN(C(=O)c4ccc5ccccc5c4)CC3C2)nc1` (stereo not drawn) [Example 77, N-Hydroxy 2-[5-(naphthalene-2-carbonyl)hexahydropyrrolo[3,4-c]pyrrol-2(1H)-yl]pyrimidine-5-carboxamide], the IC50 is under 330 nM in the experiment on HeLa cells, under 100 nM in experiment [1], 331 to 3300 nM in the experiment with U937 and under 330 nM in the experiment with HUT.

For `O=C(NO)c1cnc(N2CC3CN(C(=O)CCCOc4ccccc4)CC3C2)nc1` (stereo not drawn) [Example 78, N-Hydroxy 2-[5-(4-phenoxybutyryl)hexahydropyrrolo[3,4-c]pyrrol-2(1H)-yl]pyrimidine-5-carboxamide], the IC50 in the experiment on HeLa cells is over 3300 nM; in experiment [1], under 100 nM; in the experiment on U937, 331 to 3300 nM; in the experiment on HUT it was 331 to 3300 nM.

Take `O=C(NO)c1cnc(N2CC3CN(Cc4ccc5ccccc5c4)CC3C2)nc1` (stereo not drawn) [Example 79, N-Hydroxy 2-(5-naphthalen-2-ylmethylhexahydropyrrolo[3,4-c]pyrrol-2(1H)-yl)pyrimidine-5-carboxamide]: the IC50 in the experiment on HeLa cells is under 330 nM; in experiment [1] it was under 100 nM; with U937 it was under 330 nM; in the experiment on HUT, under 330 nM.

For the compound `COc1ccc2c(c1)CCC2N1CC2CN(c3ncc(C(=O)NO)cn3)CC2C1` (stereo not drawn) [Example 80, N-Hydroxy 2-[5-(5-methoxyindan-1-yl)hexahydropyrrolo[3,4-c]pyrrol-2(1H)-yl]pyrimidine-5-carboxamide], the IC50 is under 330 nM in the experiment on HeLa cells, under 100 nM in experiment [1], 331 to 3300 nM in the experiment with U937 and under 330 nM with HUT.

`O=C(NO)c1cnc(N2CC3CN(S(=O)(=O)c4cc(C(F)(F)F)cc(C(F)(F)F)c4)CC3C2)nc1` (stereo not drawn) [Example 81, N-hydroxy 2-[5-(3,5-bistrifluoromethylbenzenesulfonyl)hexahydropyrrolo[3,4-c]pyrrol-2(1H)-yl]-pyrimidine-5-carboxamide]: the IC50 in the experiment on HeLa cells was over 3300 nM; in experiment [1], under 100 nM; with U937, 331 to 3300 nM; in the experiment with HUT, 331 to 3300 nM.

As for `O=C(NO)c1cnc(N2CC3CN(S(=O)(=O)c4ccc(OC(F)(F)F)cc4)CC3C2)nc1` (stereo not drawn) [Example 82, N-Hydroxy 2-[5-{[4-(trifluoromethoxy)phenyl]sulfonyl}hexahydropyrrolo[3,4-c]pyrrol-2(1H)-yl]pyrimidine-5-carboxamide], the IC50 was 331 to 3300 nM with HeLa cells, under 100 nM in experiment [1], 331 to 3300 nM in the experiment with U937 and 331 to 3300 nM with HUT.

`O=C(NO)c1cnc(N2CC3CN(Cc4cc(F)cc(F)c4)CC3C2)nc1` (stereo not drawn) [Example 83, N-Hydroxy 2-[5-(3,5-difluorobenzyl)hexahydropyrrolo[3,4-c]pyrrol-2(1H)-yl]pyrimidine-5-carboxamide]: the IC50 in the experiment on HeLa cells was 331 to 3300 nM; in experiment [1] it was under 100 nM; in the experiment on U937, under 330 nM; with HUT, under 330 nM.

Consider `COc1ccc(CN2CC3CN(c4ncc(C(=O)NO)cn4)CC3C2)cc1` (stereo not drawn) [Example 84, N-Hydroxy 2-[5-(4-methoxybenzyl)hexahydropyrrolo[3,4-c]pyrrol-2(1H)-yl]pyrimidine-5-carboxamide], for which the IC50 in the experiment on HeLa cells is 331 to 3300 nM; in experiment [1], under 100 nM; in the experiment on U937, 331 to 3300 nM; in the experiment with HUT it was under 330 nM.

Consider `O=C(NO)c1cnc(N2CC3CN(Cc4ccc(Cl)cc4)CC3C2)nc1` (stereo not drawn) [Example 85, N-Hydroxy 2-[5-(4-chlorobenzyl)hexahydropyrrolo[3,4-c]pyrrol-2(1H)-yl]pyrimidine-5-carboxamide], for which the IC50 in the experiment with HeLa cells was 331 to 3300 nM; in experiment [1] it was under 100 nM; in the experiment with U937, under 330 nM; with HUT it was under 330 nM.

On to `O=C(NO)c1cnc(N2CCC3(CC2)CCN(S(=O)(=O)c2ccc4ccccc4c2)CC3)nc1` [Example 86, N-Hydroxy 2-[9-(naphthalene-2-sulfonyl)-3,9-diaza-spiro[5.5]undec-3-yl]pyrimidine-5-carboxamide], for which the IC50 in the experiment with HeLa cells was over 3300 nM; in experiment [1] it was 101 to 1000 nM; with U937, 331 to 3300 nM; with HUT, 331 to 3300 nM.

`O=C(NO)c1ccc(N2CC3CN(Cc4ccc5ccccc5c4)CC3C2)nc1` (stereo not drawn) [Example 87]: the IC50 in the experiment on HeLa cells was 331 to 3300 nM; in experiment [1], under 100 nM; in the experiment on U937 it was 331 to 3300 nM; with HUT, 331 to 3300 nM.

In the case of `O=C(NO)c1ccc(N2CC3C(C2)C3NCc2ccc3ccccc3c2)cc1` (stereo not drawn) [Example 88, N-Hydroxy 4-{6-[(naphthalen-2-ylmethyl)-amino]-3-azabicyclo[3.1.0]hex-3-yl}-benzamide], the IC50 is 331 to 3300 nM in the experiment on HeLa cells, 101 to 1000 nM in experiment [1], 331 to 3300 nM in the experiment on U937 and 331 to 3300 nM in the experiment on HUT.
